Experimental data from patent US20180263943A1, “COMPOUND FOR TREATMENT OF MYOTONIC DYSTROPHY TYPE 1” (UNIVERSITAT DE VALÈNCIA, ESTUDI GENERAL, priority 2014, published 2018).
Entries after “also recorded” stand apart in the source; their conditions may differ.

Key:
[1] = tested on: DM1 model flies (Mhc-Gal4 UASi(CTG)480>yw); assay: Drosophila lifespan analyses with oral drug administration; type: in vivo; conditions: for increase in mean life compared to that for untreated flies: oral, 29° C.; for median survival compared to untreated flies / survival / mean life expectancy of myotonic dystrophy type 1 model flies (summary): oral administration; for survival / mean life expectancy of myotonic dystrophy type 1 model flies (summary): tested at 10 and 100 μM
Description: Between 50-80 newly emerged flies were collected in freshly prepared tubes containing standard nutritive medium containing apoptosis or autophagic inhibitor drugs or solvent only (water or DMSO). Males and females were kept in different tubes at 29° C. Every day, the number of dead flies was scored. Flies were transferred to new tubes twice a week. NAC, chloroquine and NSCl (Sigma-Aldrich) were tested at 10 and 100 μM and dissolved in water or DMSO following the manufacturer's indications. Survival curves were obtained using the Kaplan-Meier method. Statistical curve comparisons were carried out according to the Gehan-Breslow-Wilcoxon test (α=0.05).
The effect of a chemical inhibition of apoptosis or autophagy in model flies (Mhc-Gal4 UASi(CTG)480>yw) was studied. Consequently, two different drugs previously described as autophagic inhibitors were tested. N-acetyl cysteine (NAC) blocks reactive oxygen species (ROS) and protects cells by inhibiting autophagy through activation of the PI3K/Akt/mTOR pathway (20), and chloroquine triggers autophagy inhibition raising lysosomal pH and, consequently, the fusion of autophagosome with lysosome, thus preventing lysosomal protein degradation [reviewed in (21)]. Both drugs were assayed at two different concentrations, 10 and 100 μM (FIGS. 5 A, B).
Additionally, the effects of apoptosis inhibition were assayed. NSCl, a caspase 3 inhibitor, was orally administered.

[2] = tested on: DM1 model flies [Mhc-Gal4 UAS-i(CTG)480>yw]; assay: Histological analysis of indirect flight muscle area in DM1 model flies; type: in vivo, Drosophila; conditions: oral administration
Description: Analysis of the indirect flight muscle area in Drosophila thoraces was performed as previously described (13). Briefly, six Drosophila thoraces of three-day-old females were embedded in Epon following standard procedures. After the drying of the resin, semi-thin sections of 1.5 μm were obtained using Ultracut E ultramicrotome system (Reichert & Jung and Leica). Images were taken at 100× magnification with a Leica DM2500 microscope. To quantify muscle area, five images per fly containing IFMs (indirect flight muscles) were converted into binary images. Considering the complete image as 100% of the area, the percentage occupied by pixels corresponding to IFMs was calculated using NIH ImageJ software. P-values were obtained using a two-tailed, non-paired t-test (α=0.05), applying Welch's correction when necessary.
For that purpose, DM1 model flies were fed with food containing 10 and 100 μM NAC for 7 days.
Histological analysis of muscles was performed in adult model flies [Mhc-Gal4 UAS-i(CTG)480>yw] and control flies (Mhc-Gal4>yw) which were fed for 7 days at 25° C. with standard media containing 10 and 100 μM NAC. After that period, six female thoraces were subjected to non-fluorescent histological analysis, as described above (FIG. 7).

DM1 fibroblasts = assay: LysoTracker staining of autolysosomes in DM1 fibroblasts; type: cell-based, human; conditions: 0.01, 1, 10 and 100 μM, 48 h
Description: A cell model of DM1 (provided by D. Furling's laboratory, Institute of Myologie, Paris) consisted of normal and DM1 (1300 CTG repeats) immortalized (hTERT) skin fibroblasts expressing conditional MyoD. Fibroblast cells were grown in Dulbecco's Modified Eagle Medium (DMEM) with 4.5 g/L of glucose, 1% of penicillin and streptomycin (P/S) and 10% foetal bovine serum (FBS) (Sigma). For compound testing, fibroblasts were aliquoted in 24-well plate at 3.5×10^4 cells per well. Each well contained a cover slip.
To this end, a cell model of DM1 was cultured as described above and NAC (Sigma-Aldrich) was added to afford final concentrations of 0.01, 1, 10 and 100 μM before incubating the cultures for 48 hours. To transdifferentiate fibroblasts into myoblasts by inducing expression of MyoD, cells were plated in muscle differentiation medium (MDM) containing DMEM 4.5 g/L glucose with 1% P/S, 2% horse serum, 1% apo-transferrin (10 mg/mL), 0.1% insulin (10 mg/mL) and 0.02% doxycyclin (10 mg/mL). After treatment with NAC, each well was washed twice with PBS and incubated with 100 nM LysoTracker RED-DND99 and 5 μg/mL Hoechst 33258 (Invitrogen and Sigma-Aldrich, respectively) at 37° C. for 30 min and mounted using fluorescence mounting medium (Dako, Glostrup, Denmark). Images from cell culture were obtained using a fluorescence microscope Leica DM4000 B LED at 400× magnification (FIG. 6).

[3] = tested on: Myosin heavy chain (Mhc)-Gal4 UAS-i(CTG)480 flies; assay: Flight assay (landing height); type: in vivo, Drosophila; conditions: five days
Description: Flight assays were performed five days after according to (Babcock et al. 2014 PMID: 24561810) using 100 male flies per group. Landing distance was compared between groups taking the compound and controls using t-student test (FIG. 8). The significance threshold was set to p<0.05.

MBNL1 = MBNL1 nuclear protein levels in DM1 myoblasts (immunofluorescence); type: cell-based, human; conditions: 0.1, 1, 10 and 100 μM, 24 h
Description: In order to determine whether NAC modifies MBNL1 protein levels and/or the number of ribonuclear foci, DM1 fibroblasts were transdifferentiated to myoblasts by induction of MyoD expression for 24 h. To this end, fibroblasts were aliquoted in 96-well plate (8×10^3 cells per well) and transdifferentiated to myoblast in DMD media over 24 hours before the addition of NAC was added at concentrations of 0.1, 1, 10 and 100 μM using DMSO and water as vehicle and remained in the media with the compound another 24 hours. Subsequently cells were fixed in 4% paraformaldehyde (PFA) for 10 min at room temperature followed by several washes in PBS 1×. Cells were then permeabilized with 0.3% Triton in PBS (PBT), blocked (PBT 1% donkey serum and 0.5% BSA) for 30 min at room temperature, and incubated with primary antibody (mouse anti-MBNL1 1:200; Sigma) at 4° C. overnight in order to detect MBNL1 with a monoclonal antibody. After several washes with PBT, cells were incubated for 45 min with biotin-conjugated secondary antibody (Sigma) at a 1:200 dilution. Cells were then incubated with ABC solution (ABC kit, VECTASTAIN) for 30 min at room temperature, followed by PBT washes and incubation with streptavidin-FITC (1:200) for 45 min. […] Images were taken using IN Cell Analyzer 2200 Imaging System and MBNL intensity in nuclei was counted using software designed for this system.

ribonuclear foci = assay: Ribonuclear foci detection in DM1 cells (in situ hybridization); type: cell-based, human; conditions: 0.1, 1, 10 and 100 μM, 24 h
Description: In addition, for ribonuclear foci detection, fibroblasts were aliquoted in 96-well plate (1.0×10^4 cells per well). Compound was added 24 hours after plating the cells. After 24 hours incubation with NAC at concentrations of 0.1, 1, 10 and 100 μM using DMSO and water as vehicle, cells were fixed in 4% paraformaldehyde (PFA) for 10 min at room temperature followed by several washes in PBS 1×. Fixed cells were incubated in pre-hybridization buffer (SSC 2×, 30% deionized formamide) for 30 min at room temperature, hybridized with Cy3-(CAG)7-Cy3 labelled probe diluted 1:500 in hybridization buffer (40% formamide, 2×SSC, 0.2% BSA, 10% dextran sulfate, 2 mM vanadyl complex, 10% tRNA (10 mg/mL), 10% herring sperm) for 2 hours at 37° C., washed twice in SSC2× buffer for 15 min at 45° C., washed in PBS 1× for 15 min at room temperature, incubated with Hoechst 33342 (5 mg/mL) diluted 1:2000 in PBS 1× for 20 min at room temperature and mounted with 20% MOWIOL. Images were taken using IN Cell Analyzer 2200 Imaging System and foci number was counted using software designed for this system.

Question: Which “increase in mean life compared to that for untreated flies” value (from here on “increase in mean life compared to that”) ([1]; 10 μM in food) does the source give for CCN(CC)CCCC(C)Nc1ccnc2cc(Cl)ccc12 (stereo not shown) [chloroquine] here?
Answer: The value was “at least twice”.

Question: And the “median survival compared to untreated flies” value ([1]; 10 μM)?
Answer: Its value is “increased median survival”.

Question: What about the “increase in mean life compared to that” value ([1]; 100 μM in food) of the same molecule?
Answer: The value was “at least twice”.

Question: And the “median survival compared to untreated flies” value ([1]; 100 μM)?
Answer: The value was “increased median survival”.

Question: What about the “survival / mean life expectancy of myotonic dystrophy type 1 model flies (summary)” value [1] of the same molecule?
Answer: The value was “more than doubled”.

Question: What about the “muscle area of IFM versus water control” value ([2]; 10 μM) of the same molecule?
Answer: Its value is “increase in muscle area”.

Question: What does the source list for COc1ccc(CN2C(=O)C(=O)c3cc(S(=O)(=O)N4CCC[C@H]4COc4cccnc4)ccc32)cc1 [NSCl, 1-(4-methoxybenzyl)-5-({(2S)-2-[(3-pyridinyloxy)methyl]-1-pyrrolidinyl}sulfonyl)-1H-indole-2,3-dione]?
Answer: improvement of mean life ([1]; 10 μM (lower concentration), orally administered): 4 days; median survival compared to untreated flies ([1]; 10 μM): improvement in median survival; median survival compared to untreated flies ([1]; 100 μM): No effect; survival / mean life expectancy of myotonic dystrophy type 1 model flies (summary) [1]: improved

Question: With CC(=O)N[C@@H](CS)C(=O)O [NAC, N-acetyl cysteine] as the molecule, how does the “autolysosomes (LysoTracker staining) compared to untreated DM1 fibroblasts” value (DM1 fibroblasts) read?
Answer: The value was “dramatic decrease of autolysosomes; also recorded: dramatically reduce autolysosomes”.

Question: What about the “increase in mean life compared to that” value ([1]; 10 μM in food) of the same molecule?
Answer: The value was “at least twice”.

Question: What about the “median survival compared to untreated flies” value ([1]; 10 μM) of the same molecule?
Answer: The value was “increased median survival”.

Question: What about the “increase in mean life compared to that” value ([1]; 100 μM in food) of the same molecule?
Answer: The value was “at least twice”.

Question: And the “median survival compared to untreated flies” value ([1]; 100 μM)?
Answer: Its value is “increased median survival”.

Question: What about the “survival / mean life expectancy of myotonic dystrophy type 1 model flies (summary)” value [1] of the same molecule?
Answer: Its value is “more than doubled”.

Question: What about the “muscle area of IFM versus water control” value ([2]; 10 μM) of the same molecule?
Answer: The value was “increase in muscle area”.

Question: And the “muscle area of IFM versus water control” value ([2]; 100 μM)?
Answer: Its value is “increase in muscle area”.

Question: What about the landing height ([3]; 10 μM in food) of the same molecule?
Answer: Its landing height is “significantly higher landing height”.

Question: And the landing height ([3]; 100 μM in food)?
Answer: The landing height was “significantly higher landing height”.

Question: And the “MBNL1 intensity in the nucleus / MBNL1 protein levels” value (MBNL1)?
Answer: Its value is “remains unchanged”.

Question: What about the “number of ribonuclear foci” value (ribonuclear foci) of the same molecule?
Answer: Its value is “does not modify; also recorded: neither modifies”.
